Reference: patent publication US20200023001A1, “GlycoFix (Structurally And Functionally Repaired Endothelial Glycocalyx)” (Northeastern University, priority 2018, published 2020)

Legend:
Assay type in all cases: cell-based, rat
[1] = test system: Cx-containing gap junctions of RFPEC; assay: Lucifer Yellow scratch-loading dye transfer assay (gap junction communication)
Protocol: (§1) Cell Culture. Rat fat pad ECs (RFPEC) at passages 20 to 39 were offspring of cells isolated from rat epididymal fat pad and provided by Dr. Mia Thi of Albert Einstein College of Medicine (Bronx, N.Y.). […] The RFPECs are immortalized, making it possible to use late passages. RFPEC were seeded on 12-14-mm diameter and 0.13-0.17-mm thick glass coverslips at a seeding density of 15,000-20,000 cells/cm^2. Cells were cultured in Dulbecco's Modified Eagle Medium (DMEM, Invitrogen, USA) with 1% penicillin-streptomycin (PS) and 10% fetal bovine serum (FBS, Gibco Life Technologies). Cells were maintained in humidity at 37° C. and 5% CO2. RFPECs reached full confluence in 3 days.
(§2) Cultured RFPECs produce thick and robust GCX in this time period. At 3 days post-seeding the RFPECs' culture medium was supplemented with 1% BSA in place of FBS to stabilize the GCX during preservation and immunolabeling (described below). For enzyme treatment experiments, 25 micro-international units per milliliter (μIU/ml) of heparinase III (Hep III; IBEX, Canada) were added to BSA-containing culture media for 2 hours to degrade HS from the GCX [46]. HepIII was washed out, and the wash-out was followed by a 16-hour incubation of RFPECs in regular BSA-containing media. In self-recovery experiments, RFPEC GCX was left to recover for 24 hours after enzyme degradation. The time frame was chosen in accordance with the 20-hour time period that is required for HS restoration to occur on the surface of ECs. For HS recovery experiments, exogenous HS and/or S1P were applied for 16 hours to accommodate the communication test as an assessment of functional glycocalyx recovery. […] After HS was degraded with HepIII, it was replaced by a 16-hour feeding of RFPECs with 59 μg/ml exogenous porcine mucosal HS (Celsus, Cincinnati, Ohio), based on published serum concentration of HS [43]. In sphingosine-1-phosphate experiments, culture media containing enzyme was substituted for media containing either 10 μM of S1P (Sigma-Aldrich) or a combination of 59 μg/ml of HS and 10 μM of S1P for 16 hours after enzyme degradation.
Dye transfer assay, fluorescence microscopy and image analysis. Gap junction functionality was assessed by loading Lucifer Yellow in RFPECs, using a scratch technique, and observing the extent of Lucifer Yellow transfer from loaded cells to neighboring cells (FIG. 7B). Lucifer Yellow has a molecular weight of 457.3 and can only enter cells via broken membranes or via gap junctions. The scratch loading technique involved pre-incubation of RFPECs (for 1 minute) with calcium- and magnesium-free Hanks' Balanced Salt Solution (HBSS; Life Technology) containing 5 mg/ml Lucifer Yellow dye (Life Technology). A 5-μm diameter tip scribe (Ted Pella, Inc, USA) was then used to carefully create a straight scratch in the RFPEC monolayer and to allow the dye to enter the scratched cells. After the dye was loaded, it spread via open gap junctions to adjacent intact cells, with the extent of Lucifer Yellow spread reaching a plateau by 10 minutes after loading. At that point, excess dye was washed out and RFPECs were imaged at 10× magnification (dry objective) using a Zeiss Observer Z1 fluorescence microscope. From recorded images of dye transfer after scratch loading, ImageJ randomly selected dye spread locations that would be quantified along the scratch. At those random locations, lines perpendicular to the scratch axis were drawn, and the intact fluorescent cells (scratched cells excluded) were counted. […]

[2] = test system: heparan sulfate (HS) of RFPEC glycocalyx; assay: HS expression (coverage) in RFPEC glycocalyx by immunofluorescence confocal microscopy (Example 1)
Protocol: as §1, §2
Immunostaining. RFPECs have high affinity to most antibodies that are available for performing immunocytochemistry. For heparan sulfate (HS), RFPEC monolayers were treated with 2% paraformaldehyde/1% glutaraldehyde in phosphate buffered saline (PBS) for fixation, treated with 2% goat serum in PBS to block non-specific ligands, and stained for three nights at 4° C. with a 1:100 10E4-epitope HS antibody (Amsbio).
As specified by the manufacturer, the HS antibody reacts with many types of heparan sulfate. The reactivity of the HS antibody is abolished after treatment with Hep III, indicating antibody specificity. […]

Cx43 at RFPEC borders = assay: Cx43 expression at EC borders, immunostaining and confocal microscopy
Protocol: as §1, §2
As specified by the manufacturer, the HS antibody reacts with many types of heparan sulfate. The reactivity of the HS antibody is abolished after treatment with Hep III, indicating antibody specificity. For secondary detection of HS, Alexa Flour 488 conjugated goat anti-mouse IgG/IgM (H+L; Life Technologies) secondary antibody was used. RFPECs to be processed for connexin 43 (Cx43) were fixed in 4% paraformaldehyde, permeabilized in 0.2% Triton X-100 (Fisher), and blocked in 5% goat serum combined with 0.2% Triton X-100. Connexin 43 staining was performed overnight at 4° C. with 1:100 mouse monoclonal Cx43 antibody (Millipore). […] Secondary Cx43 detection was done with Alexa Flour 488 conjugated goat anti-mouse IgG. […] These controls confirmed that the staining observed in the RFPECs is not an artefact.
Confocal immunofluorescence microscopy imaging and analysis. Alexa Fluor 488 fluorescent RFPECs were mounted with Vectashield containing DAPI (Vector Labs) and imaged with a Zeiss LSM 700 laser scanning confocal microscope. HS and Cx43 were imaged at 63× magnification (oil objective) and 40× magnification (oil objective), respectively. Lasers with excitation wavelengths of 490 nm (for HS or Cx43) and 350 nm (for DAPI) were used to obtain XY-plane slices. Laser gain and transmission were kept below fluorophore saturation levels. Confocal slice intervals were 0.2 μm for HS and 0.7 μm for Cx43. […]

[3] = RFPEC, Hep III, then 16 h with or without 59 μg/ml HS and/or 10 μM S1P, mean±SEM
[4] = after Hep III, HS 59 μg/ml, S1P 10 μM

Row | SMILES | Lucifer Yellow dye spread, neighboring cells receiving dye per scratch-loaded cell [1, 3] [cells] | Lucifer Yellow dye transfer, result in words (FIG. 4 legend) [1, 4] | HS expression in GCX, result in words (FIG. 2 legend) ([2]; 25 μIU/ml Hep III, HS 59 μg/ml, S1P 10 μM) | HS coverage of cell surfaces ([2]; RFPEC, Hep III 2 hours, probed 16 hours after, with or without 59 μg/ml exogenous HS and/or 10 μM S1P for the 16 hours, mean±SEM) [%] | Cx43 distribution along the perimeter of the cells (Cx43 at RFPEC borders; [3]) [%] | Cx43 distribution/expression, result in words (FIG. 3 legend) (Cx43 at RFPEC borders; [4]) | effect of actin disruption on cell-to-cell movement of Lucifer Yellow dye ([1]; preliminary studies, data not shown)
1 | CCCCCCCCCCCCC/C=C/[C@@H](O)[C@@H](N)COP(=O)(O)O [S1P, sphingosine-1-phosphate] | 2.06±0.08 | did not improve cell-to-cell communication | significantly recovered the expression of HS in GCX, back to baseline conditions | 71.97±5.02 | 34.81±5.16 | did not show a significant restoration of Cx43 expression | 
2 | C=C1[C@@H](C)[C@H]2[C@H](Cc3ccccc3)NC(=O)[C@]23[C@H](OC(C)=O)/C=C/[C@@](C)(O)C(=O)[C@@H](C)C/C=C/[C@H]3[C@@H]1O [cytochalasin D] |  |  |  |  |  |  | bars cell-to-cell movement of Lucifer Yellow dye
